Assay results as given in article PMC3547291 (Bioorganic & medicinal chemistry letters, 2012).

How the values were obtained:
PDGFRβ = PDGFRβ (Homo sapiens, UniProt P09619); experiment: Kinase inhibition functional assay; assay type: biochemical
FLT3 = target: T1, FLT3 (Homo sapiens, UniProt P36888); experiment: Kinase inhibition functional assay; assay type: biochemical
T1 sequence (P36888 27-993): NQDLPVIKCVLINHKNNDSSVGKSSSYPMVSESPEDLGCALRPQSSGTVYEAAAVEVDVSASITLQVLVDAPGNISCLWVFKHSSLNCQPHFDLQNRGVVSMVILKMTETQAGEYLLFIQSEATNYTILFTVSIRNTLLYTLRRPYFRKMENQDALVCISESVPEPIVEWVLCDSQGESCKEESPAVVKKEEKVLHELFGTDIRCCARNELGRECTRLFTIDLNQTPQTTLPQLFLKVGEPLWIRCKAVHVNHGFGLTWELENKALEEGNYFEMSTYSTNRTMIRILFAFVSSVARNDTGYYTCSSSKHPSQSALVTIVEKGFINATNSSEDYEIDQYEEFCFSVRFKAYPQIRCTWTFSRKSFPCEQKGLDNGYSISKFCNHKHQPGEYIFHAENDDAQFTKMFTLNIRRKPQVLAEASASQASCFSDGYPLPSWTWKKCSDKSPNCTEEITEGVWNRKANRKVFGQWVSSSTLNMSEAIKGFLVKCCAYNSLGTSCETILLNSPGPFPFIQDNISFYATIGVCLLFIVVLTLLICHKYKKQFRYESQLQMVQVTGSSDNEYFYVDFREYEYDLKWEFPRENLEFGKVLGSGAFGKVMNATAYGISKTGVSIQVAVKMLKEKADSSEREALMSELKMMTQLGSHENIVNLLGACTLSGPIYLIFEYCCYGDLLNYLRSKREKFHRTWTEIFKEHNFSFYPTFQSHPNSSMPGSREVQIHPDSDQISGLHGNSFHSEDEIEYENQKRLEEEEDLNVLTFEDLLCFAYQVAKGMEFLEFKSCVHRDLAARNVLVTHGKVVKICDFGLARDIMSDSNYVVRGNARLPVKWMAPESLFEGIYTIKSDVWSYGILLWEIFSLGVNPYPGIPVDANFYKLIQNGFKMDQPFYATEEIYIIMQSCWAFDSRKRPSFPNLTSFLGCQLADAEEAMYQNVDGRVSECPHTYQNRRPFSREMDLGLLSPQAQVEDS

Chain of PDGFRβ (P09619 33-1106): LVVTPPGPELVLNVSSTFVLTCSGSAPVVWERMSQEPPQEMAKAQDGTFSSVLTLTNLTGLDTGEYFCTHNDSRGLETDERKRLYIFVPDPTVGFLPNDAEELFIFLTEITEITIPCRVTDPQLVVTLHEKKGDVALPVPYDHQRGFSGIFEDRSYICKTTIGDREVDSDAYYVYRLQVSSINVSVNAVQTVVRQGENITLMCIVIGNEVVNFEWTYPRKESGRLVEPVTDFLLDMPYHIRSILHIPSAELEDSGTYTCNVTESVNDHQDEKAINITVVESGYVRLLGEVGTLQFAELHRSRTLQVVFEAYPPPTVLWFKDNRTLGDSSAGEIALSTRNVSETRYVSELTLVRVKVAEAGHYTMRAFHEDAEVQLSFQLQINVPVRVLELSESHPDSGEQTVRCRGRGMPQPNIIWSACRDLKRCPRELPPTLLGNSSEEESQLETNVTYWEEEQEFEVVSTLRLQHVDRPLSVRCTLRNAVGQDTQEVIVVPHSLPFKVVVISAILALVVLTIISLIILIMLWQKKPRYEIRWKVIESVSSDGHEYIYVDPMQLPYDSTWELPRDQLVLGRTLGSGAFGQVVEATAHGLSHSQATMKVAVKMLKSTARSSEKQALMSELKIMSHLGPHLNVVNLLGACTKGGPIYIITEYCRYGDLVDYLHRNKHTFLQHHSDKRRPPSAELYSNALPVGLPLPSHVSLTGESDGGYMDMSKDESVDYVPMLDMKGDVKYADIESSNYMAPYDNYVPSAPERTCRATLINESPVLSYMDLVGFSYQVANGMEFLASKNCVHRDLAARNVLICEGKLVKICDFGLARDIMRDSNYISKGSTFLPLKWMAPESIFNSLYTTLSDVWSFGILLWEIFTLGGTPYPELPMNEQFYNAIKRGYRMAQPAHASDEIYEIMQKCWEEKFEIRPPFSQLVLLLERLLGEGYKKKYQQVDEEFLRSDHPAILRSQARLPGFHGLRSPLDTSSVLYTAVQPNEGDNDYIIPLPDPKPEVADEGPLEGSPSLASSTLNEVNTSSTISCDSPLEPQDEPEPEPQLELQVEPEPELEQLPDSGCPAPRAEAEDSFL

| Compound | IC50 (PDGFRβ) [nM] | IC50 (FLT3) [nM] |
| --- | --- | --- |
| Cc1cn(-c2cc(F)cc(NC(=O)c3ccc(C)c(Nc4nccc(-c5cccnc5)n4)c3)c2)cn1 [Compound 2b] | > 50000 |  |
| Cc1cc(NC(=O)c2ccc(C)c(Nc3nccc(-c4cccnc4)n3)c2)cc(-n2cnc(C)c2)c1 [Compound 2c] |  | 118 |
